Reference: US9375448B2, “Method for isolating a chemotherapeutic agent resistant cancer cell with stem cell properties” (THE ROGOSIN INSTITUTE, INC., priority 2010, dated 2016)
Entries after “also recorded” stand apart in the source; their conditions may differ.

Experiments:
RENCA cells [1] = test: Histological examination of agarose coated agarose beads containing RENCA cells one week after drug exposure; type: cell-based; parameters: key to Effect: −: no change; +: complete loss of cell viability; +/−: an intermediate effect; details: for Effect: histology one week following exposure; for Destruction of cells within the encapsulated tumor colonies: beads treated with the drug
Procedure: Agarose coated, agarose beads containing RENCA cells were prepared in accordance with Smith, et al., Canc Res., 71(3): 716-724 (2011); and Smith et al., Canc. Res. 71(3): 725-735 (2011), the disclosures of which are incorporated by reference. The resulting beads were cultured in medium for 12 weeks.
Samples of beads were then exposed to a single, known anti-cancer drug, at one of three varying concentrations. The exposure involved incubation of the beads in the presence of the drug for a period of time based upon the known, half life of the drug.
Following incubation, the beads were washed, twice, and transferred to naïve culture media. Controls were also prepared, which included untreated beads, as well as beads exposed to whatever vehicle was used to solubilize the drug.
Histological examination of the beads was undertaken one week following exposure to the drug. […]

RENCA cells [2] = test: 18 week culture of drug treated RENCA beads, sectioned and stained to count cell nuclei, normalized to DMSO treated beads; type: cell-based; details: for beads that developed 1 or 2 large colonies: week 18
Procedure: The Paclitaxel and Docetaxel treated beads were cultured, under standard conditions, as were control beads which had been exposed to DMSO, which was the vehicle for delivery of the two drugs. The culture period was 18 weeks.
Approximately 10% of the beads developed 1 or 2 large colonies, at week 18.
In order to quantify the cell loss, representative beads from the DMSO control, Paclitaxel and Docetaxel groups were sectioned and stained, using standard methods, in order to permit counting of cell nuclei. Results were normalized to the DMSO treated beads.
In the case of treatment with Paclitaxel, there was an initial loss over weeks 1-3, of about 25% of cells per colony. The majority of colonies did contain viable cells. […] In the case of docetaxel treated beads, these lost viable cells very rapidly, such that only 1-2 viable cells were present in the colonies 6 weeks after treatment.

## N.N.O=C([O-])C1(C(=O)[O-])CCC1.[Pt+2] [Carboplatin]
RENCA cells [1]; Treatment time 5 days, dose 25 μg/ml
  Effect: +/−
RENCA cells [1]; Treatment time 5 days, dose 250 μg/ml
  Effect: +
RENCA cells [1]; Treatment time 5 days, dose 2500 μg/ml
  Effect: +

## N.N.[Cl][Pt][Cl] [Cisplatin]
RENCA cells [1]; Treatment time 1 hr, dose 60 ng/ml
  Effect: −
RENCA cells [1]; Treatment time 1 hr, dose 600 ng/ml
  Effect: −
RENCA cells [1]; Treatment time 1 hr, dose 6000 ng/ml
  Effect: −

## CC(=O)O[C@@]12CO[C@@H]1C[C@H](O)[C@@]1(C)C(=O)[C@H](O)C3=C(C)[C@@H](OC(=O)[C@H](O)[C@@H](NC(=O)OC(C)(C)C)c4ccccc4)C[C@@](O)([C@@H](OC(=O)c4ccccc4)[C@H]21)C3(C)C [Docetaxel]
RENCA cells [1]; Treatment time 1 day, dose 0.5 μg/ml
  Effect: +/−
RENCA cells [1]; Treatment time 1 day, dose 5 μg/ml
  Effect: +/−
RENCA cells [1]; Treatment time 1 day, dose 50 μg/ml
  Effect: +/−
RENCA cells [1]
  Destruction of cells within the encapsulated tumor colonies: did not destroy all of the cells
RENCA cells [2]; 5 μg/ml, 6 weeks post-treatment
  viable cells per colony: 1-2 cells per colony
RENCA cells [2]; 5 μg/ml
  beads that developed 1 or 2 large colonies: Approximately 10%
RENCA cells [2]; 5 μg/ml, listed as docetaxel
  beads that developed 1 or 2 large colonies: about 10%

## COc1cccc2c1C(=O)c1c(O)c3c(c(O)c1C2=O)C[C@@](O)(C(=O)CO)C[C@@H]3O[C@H]1C[C@H](N)[C@H](O)[C@H](C)O1 [Doxorubicin]
RENCA cells [1]; Treatment time 2 days, dose 5 μg/ml
  Effect: +
RENCA cells [1]; Treatment time 2 days, dose 50 μg/ml
  Effect: +
RENCA cells [1]; Treatment time 2 days, dose 100 μg/ml
  Effect: +

## CN(Cc1cnc2nc(N)nc(N)c2n1)c1ccc(C(=O)N[C@@H](CCC(=O)O)C(=O)O)cc1 [Methotrexate]
RENCA cells [1]; Treatment time 1 day, dose 0.45 μg/ml
  Effect: −
RENCA cells [1]; Treatment time 1 day, dose 4.5 μg/ml
  Effect: −
RENCA cells [1]; Treatment time 1 day, dose 45 μg/ml
  Effect: −

## CC(=O)O[C@H]1C(=O)[C@@]2(C)[C@H]([C@H](OC(=O)c3ccccc3)[C@]3(O)C[C@H](OC(=O)[C@H](O)[C@@H](NC(=O)c4ccccc4)c4ccccc4)C(C)=C1C3(C)C)[C@]1(OC(C)=O)CO[C@@H]1C[C@@H]2O [Paclitaxel]
RENCA cells [1]; Treatment time 1 day, dose 0.35 μg/ml
  Effect: −
RENCA cells [1]; Treatment time 1 day, dose 3.5 μg/ml
  Effect: +/−
RENCA cells [1]; Treatment time 1 day, dose 35 μg/ml
  Effect: +/−
RENCA cells [1]
  Destruction of cells within the encapsulated tumor colonies: did not destroy all of the cells
RENCA cells [2]; 3.5 μg/ml, 18 weeks culture
  cell number at week 18: return to the pre-treatment number of cells; also recorded: equivalent to the control DMSO beads
RENCA cells [2]; 3.5 μg/ml, first 6 weeks post-treatment
  cell number in beads over time after treatment: loss of cells for 6 weeks
RENCA cells [2]; weeks 1-3 after treatment, normalized to DMSO treated beads
  initial loss of cells per colony: about 25%

## CCC1=C[C@@H]2CN(C1)Cc1c([nH]c3ccccc13)[C@@](C(=O)OC)(c1cc3c(cc1OC)N(C)[C@H]1[C@@](O)(C(=O)OC)[C@H](OC(C)=O)[C@]4(CC)C=CCN5CC[C@]31[C@@H]54)C2 [Vinorelbine]
RENCA cells [1]; Treatment time 2 days, dose 0.1 μg/ml
  Effect: −
RENCA cells [1]; Treatment time 2 days, dose 1 μg/ml
  Effect: +/−
RENCA cells [1]; Treatment time 2 days, dose 10 μg/ml
  Effect: +/−
